Laboratory results as given in US5411971A, “N-alkylenepiperidino compounds, their enantiomers and pharmaceutical compositions” (Elf Sanofi, priority 1991, dated 1995).
pKi: −log10 of the molar value. Structures can show the parent of a compound that is named as a salt.

Key:
substance P binding = assay: Antagonism of binding of substance P (rat cortex membranes or IM9 cells, not stated which); conditions: preparation (rat cortex membranes or IM9 lymphoblastic cells) not given; read-out: Ki, antagonises the binding of substance P
[1] = target: T1, neurokinin A binding, rat duodenum membranes (Rattus norvegicus, UniProt P16610); assay: Antagonism of binding to NKA (neurokinin A), rat duodenum membranes; conditions: read-out: Ki, antagonises the binding of neurokinin A
T1 construct: rat duodenum membranes; from tissue; host or cells: rat duodenum membranes
T1 sequence (P16610 1-390): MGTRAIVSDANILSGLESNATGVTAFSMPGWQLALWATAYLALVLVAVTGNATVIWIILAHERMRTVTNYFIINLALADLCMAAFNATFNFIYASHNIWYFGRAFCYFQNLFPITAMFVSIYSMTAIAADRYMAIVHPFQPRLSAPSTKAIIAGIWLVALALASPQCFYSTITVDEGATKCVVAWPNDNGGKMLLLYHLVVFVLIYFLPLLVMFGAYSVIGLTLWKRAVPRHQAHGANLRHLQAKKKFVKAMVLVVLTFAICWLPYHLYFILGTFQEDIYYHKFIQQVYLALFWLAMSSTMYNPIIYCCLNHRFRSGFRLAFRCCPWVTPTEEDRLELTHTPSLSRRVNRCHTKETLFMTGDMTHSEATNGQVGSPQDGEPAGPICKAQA

[2] = target: T2, eledoisin binding, rat membranes (Rattus norvegicus, UniProt P16177); assay: Antagonism of binding to eledoisin, rat membranes; conditions: read-out: Ki, antagonises the binding of eledoisin
T2 construct: rat membranes; from tissue; brain cortex inferred from the cited Foster et al. 1988
T2 sequence (P16177 1-452): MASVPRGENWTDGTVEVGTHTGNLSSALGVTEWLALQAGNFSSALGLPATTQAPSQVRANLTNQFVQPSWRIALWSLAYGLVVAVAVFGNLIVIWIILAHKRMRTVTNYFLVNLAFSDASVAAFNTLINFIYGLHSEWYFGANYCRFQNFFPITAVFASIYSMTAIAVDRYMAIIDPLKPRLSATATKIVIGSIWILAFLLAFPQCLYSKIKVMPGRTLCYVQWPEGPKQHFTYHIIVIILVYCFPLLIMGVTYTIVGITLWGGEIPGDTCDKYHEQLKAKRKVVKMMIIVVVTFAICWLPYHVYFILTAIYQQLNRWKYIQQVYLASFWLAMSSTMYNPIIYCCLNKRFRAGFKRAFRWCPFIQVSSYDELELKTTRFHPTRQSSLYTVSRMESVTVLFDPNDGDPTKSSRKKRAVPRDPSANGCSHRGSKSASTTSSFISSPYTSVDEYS
Text: Foster et al., Br. J. Pharmacol., 1988, 94, 602-608.
Eledoisin is a peptide of batrachian origin which is equivalent to neurokinin B.

O=C(NCC(CCN1CCC(Sc2ccccn2)CC1)c1ccc(Cl)c(Cl)c1)c1ccc(Cl)cc1Cl (stereo not drawn) [Compound 4]
pKi (substance P binding): 7.39

CC(=O)N(c1ccccc1)C1CCN(CCC(CN(C)C(=O)c2ccccc2)c2ccc(Cl)c(Cl)c2)CC1 (stereo not drawn) [Compound 8, N-[4-(N'-4-Acetylanilino-1-piperidinyl)-2-(3,4-dichlorophenyl)butyl]-N-methylbenzamide hydrochloride]
pKi [1]: 8.26

O=C(NCC(CCN1CCC(Nc2ccccc2)CC1)c1ccc(Cl)c(Cl)c1)c1ccc(F)c2ccccc12 (stereo not drawn) [Compound 9]
pKi [2]: 6.40
